From patent US20220193076A1, “METHODS OF TREATING BREAST CANCER WITH TUCATINIB” (Seagen Inc., priority 2019, published 2022) come the findings set out here.

The IC50 is the concentration that gives 50% inhibition.

For data set [1], the target named is T1, MATE1 (Homo sapiens, UniProt Q96FL8).
T1 sequence (Q96FL8 1-570): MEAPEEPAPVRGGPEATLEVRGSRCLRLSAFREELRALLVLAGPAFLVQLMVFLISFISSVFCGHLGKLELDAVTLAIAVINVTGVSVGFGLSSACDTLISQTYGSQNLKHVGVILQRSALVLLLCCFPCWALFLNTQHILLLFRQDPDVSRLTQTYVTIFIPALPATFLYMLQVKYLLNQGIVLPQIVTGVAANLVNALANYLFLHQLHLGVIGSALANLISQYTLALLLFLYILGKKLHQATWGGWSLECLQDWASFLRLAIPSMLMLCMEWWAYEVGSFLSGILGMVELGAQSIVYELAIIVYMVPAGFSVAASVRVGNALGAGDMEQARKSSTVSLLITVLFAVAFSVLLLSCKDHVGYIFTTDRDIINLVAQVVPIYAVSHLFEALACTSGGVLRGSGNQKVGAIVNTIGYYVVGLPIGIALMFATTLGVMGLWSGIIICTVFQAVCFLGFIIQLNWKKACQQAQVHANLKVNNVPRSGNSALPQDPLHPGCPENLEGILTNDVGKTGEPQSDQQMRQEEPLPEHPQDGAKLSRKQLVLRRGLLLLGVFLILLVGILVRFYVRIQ
The experiment in a line: Inhibition of MATE1 mediated transport of creatinine in transfected MDCK-II cells (Example 3). The note with it: probe substrate creatinine. Details: expressed in transfected cells; host or cells: MDCK-II. The data set is classed as in vitro ADME. As for the experimental part: OAT2, OCT2, OCT3, MATE1, and MATE2-K are the renal transporters identified to transport creatinine.
(§1) For this study, MDCK-II were maintained in DMEM with low glucose and 10% FBS. Cells were seeded at 60K±10K cells/well on 96-well, transwell membrane plates approximately 24 hours before transfection. Transport assays were carried out approximately 48 hours after transfection. Cells were transfected and treated to express the transporter of interest or treated with a control vector. The transport of creatinine was determined by radiometric detection.
(§2) Net transporter mediated uptake of the substrate by each transporter was calculated as follows: Net Transporter Mediated Substrate Uptake (pmol/min/cm^2)=(Cellular accumulation in the presence of the transporter)−(Mean cellular accumulation in the absence of the transporter.
Percent inhibition was calculated as follows: Percent inhibition=100−(100*(transporter mediated uptake)with inhibition/(transporter mediated uptake)without inhibition)
The following equation was used to determine IC50 values of uptake assays: […]

Data set [2] concerns the target T2, OCT2 (Homo sapiens, UniProt O15244).
T2 construct: expressed in transfected cells; host or cells: MDCK-II
T2 sequence (O15244 1-555): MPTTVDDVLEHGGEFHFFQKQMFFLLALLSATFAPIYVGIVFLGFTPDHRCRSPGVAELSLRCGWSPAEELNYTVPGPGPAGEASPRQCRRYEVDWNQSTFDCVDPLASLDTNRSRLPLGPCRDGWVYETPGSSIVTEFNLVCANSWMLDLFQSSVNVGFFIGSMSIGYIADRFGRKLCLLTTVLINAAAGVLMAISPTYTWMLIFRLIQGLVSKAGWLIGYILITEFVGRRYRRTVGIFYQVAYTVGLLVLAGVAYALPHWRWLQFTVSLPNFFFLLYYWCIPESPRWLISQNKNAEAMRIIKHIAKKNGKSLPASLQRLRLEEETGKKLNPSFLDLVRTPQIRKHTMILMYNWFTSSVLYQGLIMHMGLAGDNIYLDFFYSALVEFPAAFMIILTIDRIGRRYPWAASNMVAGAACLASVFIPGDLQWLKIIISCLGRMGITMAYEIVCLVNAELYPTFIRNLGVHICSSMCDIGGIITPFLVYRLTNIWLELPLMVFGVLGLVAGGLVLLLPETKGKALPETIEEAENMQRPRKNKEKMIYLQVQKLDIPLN
The experiment in a line: Inhibition of OCT2 mediated transport of creatinine in transfected MDCK-II cells (Example 3). It counts as in vitro ADME. The note with it: probe substrate creatinine, 0.03 to 10 μM. As for the experimental part:
(§3) Substrate dependent inhibition is common among transporters including MATE1 and MATE2-K. In this study, creatinine was used as the probe substrate to assess the inhibitory potency of Tucatinib and ONT-993. OAT2, OCT2, OCT3, MATE1, and MATE2-K are the renal transporters identified to transport creatinine. Tucatinib and its metabolite ONT-993 were tested as potential inhibitors of OAT2, OCT2, MATE1, and MATE2-K mediated transport using creatinine as a probe substrate.
as §1, §2
(§4) Percent inhibition was calculated as follows: Percent inhibition=100−(100*(transporter mediated uptake)with inhibition/(transporter mediated uptake)without inhibition) […]

The target in data set [3] is T3, OAT2 (Homo sapiens, UniProt Q9Y694).
T3 construct: expressed in transfected cells; host or cells: MDCK-II
T3 sequence (Q9Y694 1-548): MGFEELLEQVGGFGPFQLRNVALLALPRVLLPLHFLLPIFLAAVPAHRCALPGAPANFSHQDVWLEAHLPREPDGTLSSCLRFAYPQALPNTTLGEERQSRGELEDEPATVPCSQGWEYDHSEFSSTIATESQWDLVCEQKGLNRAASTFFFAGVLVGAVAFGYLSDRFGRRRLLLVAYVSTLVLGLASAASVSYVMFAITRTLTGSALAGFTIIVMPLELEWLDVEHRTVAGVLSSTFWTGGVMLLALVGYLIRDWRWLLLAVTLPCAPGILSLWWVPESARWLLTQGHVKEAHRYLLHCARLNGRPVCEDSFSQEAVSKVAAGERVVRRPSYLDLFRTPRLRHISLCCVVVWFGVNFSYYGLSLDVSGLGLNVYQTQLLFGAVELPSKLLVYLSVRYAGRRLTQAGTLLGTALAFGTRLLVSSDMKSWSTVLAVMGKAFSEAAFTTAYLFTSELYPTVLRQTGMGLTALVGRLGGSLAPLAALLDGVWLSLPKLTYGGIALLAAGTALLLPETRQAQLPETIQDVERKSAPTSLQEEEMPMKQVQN
The experiment in a line: Inhibition of OAT2 mediated transport of creatinine in transfected MDCK-II cells (Example 3). It counts as in vitro ADME. The note with it: at concentration of 10 μM. As for the experimental part:
as §3, §1, §2, §4

Data set [4] can be described thus: Example 2 Part E: single- and multiple-dose PK of tucatinib and ONT-993. The data set is classed as in vivo, human. The note with it: tucatinib 300 mg BID, Day 14 vs Day 8.

With `Cc1cc(Nc2ncnc3ccc(NC4=NC(C)(CO)CO4)cc23)ccc1Oc1ccn2ncnc2c1` (stereo not shown) [ONT-993], the concentration for half-maximal inhibition (IC50) in data set [1] came to 86.3 ± 12.6 nM; in data set [2], 544 ± 278 nM. Also, the “Maximum inhibition of OAT2 mediated transport of creatinine” value in data set [3] stood at 44.9%. In data set [4], the “Rac (accumulation ratio) after multiple dosing” value turned out to be 2.01.
